Series [1] has as its system HCV replicon (genotype 1b) in Huh7 cell line ET. As to the kind of experiment: microbe, parasite or virus in culture. Type of series: cell-based, HCV genotype 1b. The conditions noted are these: Hepatitis C virus, Huh-7, read-out: HCV-Replicon-(Luci-ET) 1b_IC50.
A short description of series [2]: [3H]Thymidine incorporation assay (cell toxicity). The conditions noted are these: human. On the technique in general: Incorporation of labelled thymidine or its analogues reports DNA synthesis.

A value given as a limit tells only on which side of the number the result lay.

Turning to `C[C@@H](C(=O)N(C)C1CCOCC1)N(c1cc(C#CC(C)(C)C)sc1C(=O)O)C(=O)[C@H]1CC[C@H](C)CC1` [Compound 51, 5-(3,3-Dimethylbut-1-ynyl)-3-[(trans-4-methylcyclohexanecarbonyl)-[(1S)-1-methyl-2-[methyl(tetrahydropyran-4-yl)amino]-2-oxo-ethyl]amino]thiophene-2-carboxylic acid], the IC50 in series [1] was less than 100 nM. Besides, the CC50 – broadly, the concentration at which the toxic effect on the cells reaches its halfway point – at 72 h in series [2] is more than 100 µM.

As for `COC1CN(C(=O)[C@H](C)N(c2cc(C#CC(C)(C)C)sc2C(=O)O)C(=O)[C@H]2CC[C@H](C)CC2)C1` [Compound 52, 5-(3,3-Dimethylbut-1-ynyl)-3-[[(1S)-2-(3-methoxyazetidin-1-yl)-1-methyl-2-oxo-ethyl]-(trans-4-methylcyclohexanecarbonyl)amino]thiophene-2-carboxylic acid], in series [1], the IC50 is less than 100 nM. The half-maximal cytotoxic concentration (CC50) at 72 h in series [2] is more than 100 µM.

Consider `COC1CCN(C(=O)[C@H](C)N(c2cc(C#CC(C)(C)C)sc2C(=O)O)C(=O)[C@H]2CC[C@H](C)CC2)CC1` [Compound 53, 5-(3,3-Dimethylbut-1-ynyl)-3-[[(1S)-2-(4-methoxy-1-piperidyl)-1-methyl-2-oxo-ethyl]-(trans-4-methylcyclohexanecarbonyl)amino]thiophene-2-carboxylic acid], for which, in series [1], the IC50 was less than 100 nM. In series [2], this molecule showed a 50% cytotoxic concentration (CC50) at 72 h of more than 100 µM.

`C[C@@H](C(=O)N1CCCC(O)C1)N(c1cc(C#CC(C)(C)C)sc1C(=O)O)C(=O)[C@H]1CC[C@H](C)CC1` (stereo partly drawn) [Compound 54, 5-(3,3-Dimethylbut-1-ynyl)-3-[[(1S)-2-(3-hydroxy-1-piperidyl)-1-methyl-2-oxo-ethyl]-(trans-4-methylcyclohexanecarbonyl)amino]thiophene-2-carboxylic acid]: in series [1], the IC50 is less than 100 nM. Besides, in series [2], the cytotoxic concentration (CC50) at 72 h is more than 100 µM.

Take `CO[C@H](C)[C@@H](C(=O)N1CCOCC1)N(c1cc(C#CC(C)(C)C)sc1C(=O)O)C(=O)[C@H]1CC[C@H](C)CC1` [Compound 58, 5-(3,3-Dimethylbut-1-ynyl)-3-[[(1S,2R)-2-methoxy-1-(morpholine-4-carbonyl)propyl]-(trans-4-methylcyclohexanecarbonyl)amino]thiophene-2-carboxylic acid]: in series [1], the IC50 was less than 100 nM. The same molecule gave a half-maximal cytotoxic concentration (CC50) at 72 h in series [2] of more than 100 µM.

For the molecule `C[C@@H](O)[C@@H](C(=O)N(C)C)N(c1cc(C#CC(C)(C)C)sc1C(=O)O)C(=O)[C@H]1CC[C@H](C)CC1` [Compound 59], the IC50 in series [1] was less than 100 nM. Further, the 50% cytotoxic concentration (CC50) at 72 h in series [2] was more than 100 µM.

With `C[C@@H](O)[C@@H](C(=O)N1CCOCC1)N(c1cc(C#CC(C)(C)C)sc1C(=O)O)C(=O)[C@H]1CC[C@H](C)CC1` [Compound 60, 5-(3,3-Dimethylbut-1-ynyl)-3-[[(1S,2R)-2-hydroxy-1-(morpholine-4-carbonyl)propyl]-(trans-4-methylcyclohexanecarbonyl)amino]thiophene-2-carboxylic acid], in series [1], the IC50 was less than 100 nM. In series [2], this molecule came in with a CC50 at 72 h of more than 100 µM.

`CCC1CCC(C(=O)N(c2cc(C#CC(C)(C)C)sc2C(=O)O)[C@@H](COC)C(=O)N2CCCC2)CC1` (stereo partly drawn) [Compound 63, 5-(3,3-Dimethylbut-1-ynyl)-3-[(4-ethylcyclohexanecarbonyl)-[(1S)-1-(methoxymethyl)-2-oxo-2-pyrrolidin-1-yl-ethyl]amino]thiophene-2-carb oxylic acid]: the IC50 in series [1] lay within 100 to 1000 nM. This molecule also displayed a CC50 at 72 h in series [2] of 10 to 100 µM.

For `CO[C@@H](C)[C@@H](C(=O)N(C)C)N(c1cc(C#CC(C)(C)C)sc1C(=O)O)C(=O)[C@H]1CC[C@H](C)CC1` [Compound 66, 5-(3,3-Dimethylbut-1-ynyl)-3-[[(1S,2S)-1-(dimethylcarbamoyl)-2-methoxy-propyl]-(trans-4-methylcyclohexanecarbonyl)amino]thiophene-2-carboxylic acid], the IC50 in series [1] is less than 100 nM. In addition, the CC50 at 72 h in series [2] was more than 100 µM.

For `CC(C)C#Cc1cc(N(CC(=O)N(C)C)C(=O)C2CCC(C)CC2)c(C(=O)O)s1` (centres unmarked) [Compound 67], in series [1], the IC50 was less than 100 nM. This molecule also registered a 50% cytotoxic concentration (CC50) at 72 h in series [2] of more than 100 µM.

For the origin of these results see patent publication US20130190289A1, “COMPOUNDS AND METHODS FOR THE TREATMENT OR PREVENTION OF FLAVIVIRUS INFECTIONS” (priority 2010, published 2013).
